1 substance from patent publication US7745571B2, “Peptide inhibitors of IASPP” (Ludwig Institute for Cancer Research, priority 2002, dated 2010) can be followed below.

One experiment concerns Bax promoter. In words: Stimulation of the Bax promoter by p53 after incubation with peptides (FIG. 4). The class given is cell-based. The settings on record: after incubation with peptide. On the procedure:
FIG. 4 illustrates the stimulation of the Bax promoter by p53 after incubation with various peptides, in particular DGPEETD (SEQ ID NO: 2);
For transcriptional assay, 5×10^5 Saos-2 cells were plated 24 hr prior to transfection in 6 cm dishes. Various combinations of plasmid DNA were transfected using the following amounts. All transfection assays contain 1 μg of reporter plasmid. 50 ng of wild type human p53, 100 ng of plasmid expressing C. elegans p53, 4 μg of ASPP2, or 8 μg of ASPP1, 5 μg of human iASPP or 7.5 μg of Ce-iASPP were used as indicated. After transfection, the cells were lysed in Reporter Lysis Buffer (Promega, Wis., USA) 16-24 hr post-wash and assayed using the Luciferase Assay kit (Promega, Wis., USA). The fold activation of a particular reporter was determined by the activity of the transfected plasmid above the activity of vector alone. The fold increase of p53 transactivation activity by ASPP was obtained by the activity p53 in combination with ASPP divided by the activity of p53 alone on the promoters used in each assay.

In experiment [1] the test system is p53 transactivation in U2SO. The experiment is described as follows: p53 transactivation in tumour cell line after UV damage of DNA in presence of peptide (FIG. 5). The format is cell-based, human. Conditions: U2SO cells after UV damage of DNA. The text has this: FIG. 5 illustrates the stimulation of p53 transactivation in a human tumour cell line U2SO after UV damage of DNA in the presence of peptide DGPEETD (SEQ ID NO: 2);

On to DGPEETD (p53 inhibitor peptide), for which the “stimulation of the Bax promoter by p53” value in the experiment on Bax promoter was “stimulation”. Further, the “stimulation of p53 transactivation” value in experiment [1] was “stimulation”.
